Test results reported in patent US20060135480A1, “Derivatives of succinic and glutaric acids and analogs thereof useful as inhibitors of phex” (Enobia Pharma, priority 2002, published 2006).

How the values were obtained:
sPHEX = biological target: T1, sPHEX (Homo sapiens, UniProt P78562); experiment: Protection of PHEX substrate PTHrP107-139 from sPHEX degradation (RP-HPLC); type: biochemical; conditions: 1×10^−5 M inhibitor, 15 min preincubation, 30 min at 37° C.
T1 construct: The soluble form of the metallopeptidase PHEX (sPHEX) was purified to homogeneity; made in house
T1 sequence (P78562 53-749 limits assumed): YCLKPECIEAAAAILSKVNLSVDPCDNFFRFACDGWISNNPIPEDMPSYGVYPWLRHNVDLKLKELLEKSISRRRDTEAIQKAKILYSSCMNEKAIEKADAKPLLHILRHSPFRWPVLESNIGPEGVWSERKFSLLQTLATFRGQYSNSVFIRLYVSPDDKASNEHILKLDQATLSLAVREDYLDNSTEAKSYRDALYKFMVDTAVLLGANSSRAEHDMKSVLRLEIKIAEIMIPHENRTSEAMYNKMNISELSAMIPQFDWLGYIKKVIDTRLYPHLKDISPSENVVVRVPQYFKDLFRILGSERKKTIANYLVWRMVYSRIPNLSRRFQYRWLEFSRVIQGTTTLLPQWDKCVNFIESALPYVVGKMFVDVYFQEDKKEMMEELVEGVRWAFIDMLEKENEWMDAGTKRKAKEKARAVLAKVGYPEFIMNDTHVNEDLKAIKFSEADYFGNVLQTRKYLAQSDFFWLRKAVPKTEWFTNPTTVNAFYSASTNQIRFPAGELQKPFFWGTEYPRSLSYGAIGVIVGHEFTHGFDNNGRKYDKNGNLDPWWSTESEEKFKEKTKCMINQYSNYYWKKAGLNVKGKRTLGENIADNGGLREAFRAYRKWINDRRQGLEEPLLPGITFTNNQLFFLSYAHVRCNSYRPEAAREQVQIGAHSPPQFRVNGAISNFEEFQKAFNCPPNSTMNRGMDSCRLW
Procedure: In general, in order to show inhibition of sPHEX, the enzyme is incubated in the absence or the presence of the inhibiting compound, and a substrate is added in conditions that are suitable for sPHEX enzymatic activity. Hydrolysis of the substrate in the absence or the presence of the inhibiting compound is monitored.
For example, 1.0 μg of purified sPHEX was first incubated at 37° C. for 15 min with or without 1×10^−5M of compound MH-2-64C (FIG. 1) in 90 μl 50 mM MES (2-(N-morpholino) ethanesulfonic acid) pH 6.5, 150 mM NaCl. Then, 2.5 μg of peptide PTHrP107-139 in 10 μl of the same buffer were added and the incubation continued for 30 min. The reaction mixture also contained 1.3 μg of the amino acid Phe which was used as an internal standard. After the incubation period, the reaction was stopped by the addition of EDTA to a final concentration of 5 mM. Detection of cleavage products was performed by reverse phase high performance liquid chromatography (RP-HPLC) on a C18 μBondapak™ analytical column (Waters, Mississauga, ON, Canada) with a UV detector set at 220 nm. […] Results were quantified by comparing the area under the undigested peak of PTHrP107-139, after normalization for the amount of Phe present in the sample.

rat mandibular defect = experiment: Bone lesion repair in rat mandibular defect model (hydroxyapatite particles soaked in inhibitor); type: in vivo; conditions: for bone formation (scanning electron microscopy, % of total defect area): 14 days of healing
Procedure: Osteogenic properties of PHEX inhibitors can be shown in a model of rat mandibular defect. For example, a 2 mm size bone defect was created in the rat mandible as described previously (Vu et al., 1999). Rats were anesthetized and the vestibular surface of the right mandibular ramus was exposed as follow: an incision was made through the skin along an imaginary line forming a 90° angle with the lower lip to access the muscle layer. A scalpel blade was used to make an incision parallel to the fibers of the deep portion of masseter muscle, about 2 mm posterior to the facial artery (largest branch of the external carotid), in the portion where it gives rise to the labial mandibular artery. The periosteum was elevated and the underlying bony surface exposed. A 2 mm×2 mm bony window was drilled between the second and third molar using a slow-speed dental drill with a carbide round burr size 1.4 mm (Brasseler) and a drill size 2 mm (Straumann Canada Ltd). Saline irrigation was used during the drilling. Porous hydroxyapatite particles (Fin-Ceramica Faenza s.r.l.) with pore size ranged from 450 to 600 μm were accommodated in the bony hole and pushed into it. The particles had been incubated previously in solutions of varying concentrations of PHEX inhibitor or vehicle for 16 to 24 hours at 4° C. Once the bony window was filled the lesion was covered with a membrane of hydroxyapatite (Fin-Ceramica Faenza s.r.l.) which was fixed to the surrounding bone surface with topical tissue adhesive. The muscle fibers were carefully repositioned on the mandible and sutured with absorbable surgical sutures (Chromic Gut, Ethicon Inc.). The skin was sutured for total coverage with silk sutures (Sherwood Davis & Geck, Wayne). After 7 days of treatment the bone lesion was exposed and varying concentrations of PHEX inhibitor or vehicle was reapplied to hydroxyapatite particles. Treatment was continued for another 7 days.
After the 14 day healing period, bone formation at the defect was evaluated by scanning electron microscopy and microcomputed tomography. Animals were sacrificed by intravascular perfusion through the left ventricle with 4% paraformaldehyde and 0.1% glutaraldehyde solution. Treated hemimandibles were taken, immersed in the fixative overnight at 4° C. then washed and kept in 0.1 M cacodylate buffer pH 8.0 until analysis. Specimens for quantification by scanning electron microscopy were dehydrated in a graded alcohol series and embedded in LR White resin (Marivac) for further sectioning along their longitudinal axis. […] Amount of bone tissue present in the sections was quantified by manual tracing using the MOP-3 system (Carl Zeiss) and was expressed as a percentage of the total defect area.

degradation of PTHrP107-139 by sPHEX (sPHEX): fully prevented
Structure (SMILES): O=C(O)CC(CC(=O)NO)C(=O)NCCc1ccc(-c2ccccc2)cc1 (centres unmarked) [Example 126, 3-(2-Biphenyl-4-yl-ethylcarbamoyl)4-hydroxycarbamoyl-butyric acid]
bone formation (scanning electron microscopy, % of total defect area) (rat mandibular defect; 1×10^−5 M on hydroxyapatite particles, compared to saline): reduced significantly
bone formation (microcomputed tomography 3D reconstruction) (rat mandibular defect; high inhibitor dose, one representative specimen per group): reduced bone formation
bone around particles (microcomputed tomography 3D reconstruction) (rat mandibular defect; low dose of inhibitor vs saline, one representative specimen per group): more bone
bone formation (scanning electron microscopy, % of total defect area) (rat mandibular defect; lower concentrations on hydroxyapatite particles): significantly stimulated
